The results in this text go back to patent publication US11306098B2, “Substituted pyrrolo[1,2-a]pyrazines and pyrrolo[1,2-a][1,4]diazepines as TREX1 inhibitors” (VENENUM BIODESIGN, LLC, priority 2019, dated 2022).

Molecules are shown by their SMILES. Counter-ions that a name gives are not always drawn.

The target of experiment [1] is human TREX1 (Homo sapiens (Human), UniProt Q9NSU2). Description: TREX1 Exonuclease Assay (human enzyme). To be noted: human TREX1 0.5 nM, FAM/BHQ1-labeled DNA oligonucleotide. It is filed as biochemical. The procedure: (§1) The TREX1 Exonuclease assay is an exemplary in vitro assay for measuring the activity of the TREX1 inhibitors of the present invention. In this assay, TREX1 exonuclease activity was evaluated by measuring the increase in fluorescence resulting from TREX1-catalyzed removal of a quencher from the 3′ end of a FAM-labeled DNA oligonucleotide (5′FAM-CCA CGA GAG CGT-BHQ1-3′). The assay was conducted using Wild Type (WT) human or murine TREX1 enzyme constructs corresponding to amino acids 55-297 of UniProt ID Q9NSU2-1 (SEQ ID NO: 1), or amino acids 1-242 of UniProt ID Q91XB0-1 (SEQ ID NO: 2), respectively. See, e.g., Example A.
Chain of human TREX1 (Q9NSU2 1-242): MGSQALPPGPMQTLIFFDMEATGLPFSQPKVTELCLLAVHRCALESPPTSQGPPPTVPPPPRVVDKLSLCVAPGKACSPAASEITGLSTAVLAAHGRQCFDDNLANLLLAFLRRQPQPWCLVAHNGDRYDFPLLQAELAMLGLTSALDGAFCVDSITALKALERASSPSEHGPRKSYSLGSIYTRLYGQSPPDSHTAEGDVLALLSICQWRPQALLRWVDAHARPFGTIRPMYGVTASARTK
(§2) For human TREX1, the nucleotide sequence of the gene construct was codon optimized for expression in the bacterial host. The sequence was incorporated into the pMAL-c5e vector (NEB) downstream of a solubility-promoting MBP (maltose binding protein) fusion partner. The fusion protein product was expressed in E. coli strain BL21 (DE3) (Millipore) and purified in a series of chromatographic steps. Initial steps were conducted using a dextrin sepharose affinity column followed by a Q-sepharose ion exchange column (both GE Healthcare). After the second column the MBP partner was removed by incubation with enterokinase (NEB). Further purification was carried out with the second application of a Q-sepharose column followed by a Superdex 75 (GE Healthcare) size exclusion column. Finally, a heparin sepharose column (GE Healthcare) was applied to remove contaminating nucleotides. Similar methods were used in the preparation of the murine TREX1 enzyme and are described in Example B set forth below.
(§3) To evaluate the effect of compounds on TREX1 activity, test compounds were serially diluted (11-point, 3-fold) from 10 mM stock solutions and delivered to 384-well low-volume assay plates in 80 nL DMSO using an acoustic dispenser. Next, 4 μL of human TREX1 (0.5 nM), or murine TREX1 (1 nM), diluted in assay buffer (20 mM Tris pH 7.5, 5 mM MgCl2, 100 μg/mL BSA, 0.002% Triton X-100, 2 mM DTT), was added to the assay plate. After incubating for 30 minutes, 4 μL of labeled DNA oligonucleotide (500 nM) in assay buffer was added to initiate TREX1 exonuclease activity. The reaction was allowed to proceed for 45 minutes at room temperature prior to the addition of 4 μL of 150 mM EDTA to halt TREX1 activity. Assay plates were equilibrated for an additional 30 minutes and read on an EnVision Plate Reader (Perkin Elmer) to measure fluorescence emission at 535 nm following excitation at 485 nm. Fluorescence was plotted as a function of log molar compound concentration and fit to four-parameter dose-response equation to determine compound IC50.

The target in experiment [2] is murine TREX1 (Mus musculus (Mouse), UniProt Q91XB0). Kind of experiment: TREX1 Exonuclease Assay (murine enzyme). It is filed as biochemical. To be noted: murine TREX1 1 nM, FAM/BHQ1-labeled DNA oligonucleotide. The protocol: as §1, §2, §3
Chain of murine TREX1 (Q91XB0 1-242): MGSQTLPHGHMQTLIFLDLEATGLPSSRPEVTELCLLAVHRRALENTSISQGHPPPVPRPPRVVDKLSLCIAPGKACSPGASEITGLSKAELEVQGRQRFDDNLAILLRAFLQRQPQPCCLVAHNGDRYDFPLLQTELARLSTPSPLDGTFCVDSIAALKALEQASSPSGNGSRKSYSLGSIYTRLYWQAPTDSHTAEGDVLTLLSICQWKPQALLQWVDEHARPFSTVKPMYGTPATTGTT

Take `N[C@@H]1C[C@H]2C(=O)N([C@H](CCC(=O)O)C(=O)NCc3ccc(C(F)(F)F)cc3)CCC(CCc3ccccc3)N2C1` (single isomer, unassigned) [Example 2A]: the IC50 in experiment [1] and in experiment [2] was 10 to 100 µM throughout.

With `C[C@H](C(=O)NCc1ccc(C(F)(F)F)cc1)N1CCC(CCc2ccccc2)N2C[C@H](N)C[C@H]2C1=O` (stereo partly drawn) [Example 5], the IC50 in experiment [1] and in experiment [2] was less than 1 µM throughout.

For `CC(C)C[C@H](C(=O)NCc1ccc(C(F)(F)F)cc1)N1CCC(CCc2ccccc2)N2C[C@H](N)C[C@H]2C1=O` (stereo partly drawn) [Example 6], the IC50 in experiment [1] and in experiment [2] was less than 1 µM throughout.

For the molecule `CC(C)C[C@H](C(=O)N(C)Cc1ccc(C(F)(F)F)cc1)N1CCC(CCc2ccccc2)N2C[C@H](N)C[C@H]2C1=O` (stereo partly drawn) [Example 7], the IC50 in experiment [1] and in experiment [2] was 1 to 9.99 µM each time.

On to `CC(C)C[C@H](C(=O)NCc1ccccc1)N1CCC(CCc2ccccc2)N2C[C@H](N)C[C@H]2C1=O` (stereo partly drawn) [Example 8], for which the values for the IC50 in experiment [1] and in experiment [2] were 1 to 9.99 µM and 10 to 100 µM, respectively.

For `Cc1ccc(CNC(=O)[C@@H](CC(C)C)N2CCC(CCc3ccccc3)N3C[C@H](N)C[C@H]3C2=O)cc1` (stereo partly drawn) [Example 9], the 50% inhibitory concentration (IC50) in experiment [1] and in experiment [2] was 1 to 9.99 µM in each case.

Regarding `CC(C)C[C@H](C(=O)NCc1ccc(Cl)c(Cl)c1)N1CCC(Cc2ccccc2)N2C[C@H](N)C[C@H]2C1=O` (stereo partly drawn) [Example 10], the IC50 in experiment [1] and in experiment [2] was 1 to 9.99 µM each time.

On to `CC(C)C[C@H](C(=O)NCc1ccc(Cl)c(Cl)c1)N1CCC(CCc2ccc(Cl)cc2)N2C[C@H](N)C[C@H]2C1=O` (stereo partly drawn) [Example 11], for which the IC50 was less than 1 µM in experiment [1] and 1 to 9.99 µM in experiment [2].

For `CC(C)C[C@H](C(=O)NCC1CCCCC1)N1CCC(CCc2ccccc2)N2C[C@H](N)C[C@H]2C1=O` (stereo partly drawn) [Example 12], the IC50 in experiment [1] and in experiment [2] was 10 to 100 µM throughout.

Turning to `CC(C)C[C@H](C(=O)NCc1ccc(Cl)c(Cl)c1)N1CCC(C)N2C[C@H](N)C[C@H]2C1=O` (stereo partly drawn) [Example 13], the IC50 in experiment [1] and in experiment [2] was 10 to 100 µM throughout.

In the case of `N[C@@H]1C[C@H]2C(=O)N([C@H](CCC(=O)O)C(=O)NCc3ccc(Cl)c(Cl)c3)CCC(CCc3ccccc3)N2C1` (stereo partly drawn) [Example 14A], the IC50 in experiment [1] and in experiment [2] was 10 to 100 µM in each case.

Turning to `N[C@@H]1C[C@H]2C(=O)N([C@H](CCC(=O)O)C(=O)NCc3ccc(Cl)c(Cl)c3)CCC(COc3ccccc3)N2C1` (stereo partly drawn) [Example 17], the IC50 in experiment [1] and in experiment [2] was less than 1 µM each time.

Turning to `CC(C)C[C@H](C(=O)NCc1ccc(Cl)c(Cl)c1)N1CCC(CSc2ccccc2)N2C[C@H](N)C[C@H]2C1=O` (stereo partly drawn) [Example 18], the IC50 in experiment [1] and in experiment [2] was less than 1 µM each time.

Regarding `CC(C)C[C@H](C(=O)NCc1ccc(Cl)c(Cl)c1)N1CCC(COc2ccccc2)N2C[C@H](N)C[C@H]2C1=O` (stereo partly drawn) [Example 19], the IC50 was less than 1 µM in experiment [1] and 1 to 9.99 µM in experiment [2].

Consider `CC(=O)N[C@@H]1C[C@H]2C(=O)N([C@H](CC(C)C)C(=O)NCc3ccc(Cl)c(Cl)c3)CCC(CCc3ccccc3)N2C1` (stereo partly drawn) [Example 20, (2R)-2-((8R,9aS)-8-acetamido-1-oxo-5-phenethylhexahydro-1H-pyrrolo[1,2-a][1,4]diazepin-2(3H)-yl)-N-(3,4-dichlorobenzyl)-4-methylpentanamide HCl], for which the IC50 in experiment [1] was in the range of 1 to 9.99 µM; in experiment [2], 10 to 100 µM.

With `CC(C)C[C@H](C(=O)NCc1ccc(Cl)c(Cl)c1)N1CCC(CCc2ccccc2)N2C[C@H](N(C)C)C[C@H]2C1=O` (stereo partly drawn) [Example 21, (2R)—N-(3,4-dichlorobenzyl)-2-((8R,9aS)-8-(dimethylamino)-1-oxo-5-phenethylhexahydro-1H-pyrrolo[1,2-a][1,4]diazepin-2(3H)-yl)-4-methylpentanamide HCl], the IC50 in experiment [1] is 10 to 100 µM; in experiment [2], more than 100 µM.

For `CC(C)C[C@H](C(=O)NCc1ccc(Cl)c(Cl)c1)N1CC(CCc2ccccc2)N2C[C@H](N)C[C@H]2C1=O` (stereo partly drawn) [Example 22, (2R)-2-((7R,8aS)-7-amino-1-oxo-4-phenethylhexahydropyrrolo[1,2-a]pyrazin-2(1H)-yl)-N-(3,4-dichlorobenzyl)-4-methylpentanamide.HCl], the IC50 in experiment [1] and in experiment [2] was 10 to 100 µM in each case.

For `CC(C)C[C@H](C(=O)NCCc1ccccc1)N1CCC(CCc2ccccc2)N2C[C@H](N)C[C@H]2C1=O` (stereo partly drawn) [Example 23], the IC50 in experiment [1] lay in the range of 1 to 9.99 µM; in experiment [2], 10 to 100 µM.

`CC(C)C[C@H](C(=O)N[C@H](C)c1ccccc1)N1CCC(CCc2ccccc2)N2C[C@H](N)C[C@H]2C1=O` (stereo partly drawn) [Example 24]: the IC50 in experiment [1] and in experiment [2] was 10 to 100 µM throughout.

With `CC(C)C[C@H](C(=O)N[C@@H](C)c1ccccc1)N1CCC(CCc2ccccc2)N2C[C@H](N)C[C@H]2C1=O` (stereo partly drawn) [Example 25], the IC50 in experiment [1] and in experiment [2] was 10 to 100 µM in each case.

Turning to `CC(C)C[C@H](C(=O)NCc1cccc(Cl)c1)N1CCC(CCc2ccccc2)N2C[C@H](N)C[C@H]2C1=O` (stereo partly drawn) [Example 26], the IC50 was less than 1 µM in experiment [1] and 1 to 9.99 µM in experiment [2].

In the case of `CC(C)C[C@H](C(=O)NCc1ccccc1Cl)N1CCC(CCc2ccccc2)N2C[C@H](N)C[C@H]2C1=O` (stereo partly drawn) [Example 27], the IC50 in experiment [1] was 1 to 9.99 µM; in experiment [2], 10 to 100 µM.

In the case of `CC(C)C[C@H](C(=O)NCc1cnccn1)N1CCC(CCc2ccccc2)N2C[C@H](N)C[C@H]2C1=O` (stereo partly drawn) [Example 28], the IC50 in experiment [1] lay within 1 to 9.99 µM; in experiment [2] it was 10 to 100 µM.

Regarding `CC(C)C[C@H](C(=O)NCc1cscn1)N1CCC(CCc2ccccc2)N2C[C@H](N)C[C@H]2C1=O` (stereo partly drawn) [Example 30], the IC50 was in the range of 1 to 9.99 µM in experiment [1] and 10 to 100 µM in experiment [2].

As for `CC(C)C[C@H](C(=O)NCc1ccc(Cl)cc1Cl)N1CCC(CCc2ccccc2)N2C[C@H](N)C[C@H]2C1=O` (stereo partly drawn) [Example 31], the IC50 is less than 1 µM in experiment [1] and 1 to 9.99 µM in experiment [2].

`CC(C)C[C@H](C(=O)NCc1ccc(C#N)cc1)N1CCC(CCc2ccccc2)N2C[C@H](N)C[C@H]2C1=O` (stereo partly drawn) [Example 32]: the IC50 in experiment [1] lay within 1 to 9.99 µM; in experiment [2], 10 to 100 µM.

On to `CC(C)C[C@H](C(=O)NCc1cc(Cl)cc(Cl)c1)N1CCC(CCc2ccccc2)N2C[C@H](N)C[C@H]2C1=O` (stereo partly drawn) [Example 33], for which the IC50 in experiment [1] is less than 1 µM; in experiment [2] it was 1 to 9.99 µM.

Consider `CC(C)C[C@H](C(=O)NCc1ccc(F)cc1)N1CCC(CCc2ccccc2)N2C[C@H](N)C[C@H]2C1=O` (stereo partly drawn) [Example 34], for which the values for the IC50 in experiment [1] and in experiment [2] were less than 1 µM and 1 to 9.99 µM, respectively.

Turning to `CC(C)C[C@H](C(=O)NS(=O)(=O)c1ccccc1)N1CCC(CCc2ccccc2)N2C[C@H](N)C[C@H]2C1=O` (stereo partly drawn) [Example 35], the IC50 in experiment [1] and in experiment [2] was 1 to 9.99 µM in each case.

Regarding `CC(C)C[C@H](C(=O)NCCc1ccc(Cl)c(Cl)c1)N1CCC(CCc2ccccc2)N2C[C@H](N)C[C@H]2C1=O` (stereo partly drawn) [Example 37], the IC50 is less than 1 µM in experiment [1] and 1 to 9.99 µM in experiment [2].

Regarding `N[C@@H]1C[C@H]2C(=O)N([C@H](CCc3nsc(=O)[nH]3)C(=O)NCc3ccc(Cl)c(Cl)c3)CCC(CCc3ccccc3)N2C1` (stereo partly drawn) [Example 38], the IC50 in experiment [1] and in experiment [2] was less than 1 µM each time.

On to `CC(C)C[C@H](C(=O)NS(=O)(=O)c1ccc(Cl)c(Cl)c1)N1CCC(CCc2ccccc2)N2C[C@H](N)C[C@H]2C1=O` (stereo partly drawn) [Example 39], for which the IC50 in experiment [1] and in experiment [2] was less than 1 µM throughout.

Regarding `CCC[C@H](CNS(=O)(=O)c1ccc(Cl)c(Cl)c1)N1CCC(CCc2ccccc2)N2C[C@H](N)C[C@H]2C1=O` (stereo partly drawn) [Example 40], the IC50 was less than 1 µM in experiment [1] and 1 to 9.99 µM in experiment [2].

On to `CC(C)C[C@H](C(=O)NCc1ccc(Cl)c(Cl)c1)N1CCC(CS(=O)(=O)c2ccccc2)N2C[C@H](N)C[C@H]2C1=O` (stereo partly drawn) [Example 41], for which the IC50 in experiment [1] lay in the range of 1 to 9.99 µM; in experiment [2] it was 10 to 100 µM.

For `N#CCC[C@H](C(=O)NCc1ccc(Cl)c(Cl)c1)N1CCC(CCc2ccccc2)N2C[C@H](N)C[C@H]2C1=O` (stereo partly drawn) [Example 45], the concentration for half-maximal inhibition (IC50) in experiment [1] and in experiment [2] was less than 1 µM each time.

In the case of `CC(C)C[C@H](C(=O)NCc1ccc(Cl)cc1)N1CCC(CCc2ccccc2)N2C[C@H](N)C[C@H]2C1=O` (stereo partly drawn) [Example 46], the IC50 was less than 1 µM in experiment [1] and 1 to 9.99 µM in experiment [2].

As usually defined, the IC50 is the concentration needed to halve the response being measured. A lower IC50 goes with higher potency.
